Assay results from patent US12410174B1, “Small molecular inhibitors of sting signaling compositions and methods of use” (TYERELL IMMUNOTHERAPEUTICS INC, priority 2020, dated 2025).
“Also recorded” adds a separate entry of the source.

Experiments:
STING signaling [1] = experiment: IFNβ ELISA in MEF cells after ISD treatment; format: cell-based, murine
Experimental: Example 9: Interferon β Elisa analysis: Interferon β Elisa was performed using either the IFNβ human ELISA Kit from Invitrogen or the Human IFNβ ELISA Kit from PBL Interferon Source following the manufacturer's protocol.

STING signaling [2] = experiment: qPCR of IFNβ1 / Cxcl10 in normal hTERT cells after ISD transfection; format: cell-based, human
Experimental: (§1) Example 11: qPCR total RNA were reverse-transcribed using M-MLV Reverse Transcriptase (Promega). Real-time PCR was performed using Taqman Gene Expression Assay (Applied Biosystems) for innate immune genes and inflammatory cytokines.

[3] = target: T1, human STING CBD-CTT (152-379) (STING152-379H) (Homo sapiens, UniProt Q86WV6); experiment: Thermal shift assay (TSA) for binding to purified STING; conditions: purified STING152-379H
T1 construct: Fraction containing the 237 amino acid (27 kDA) STING protein; made in house; host or cells: E. coli BL21 DE3 RIPL Codon Plus
T1 sequence (Q86WV6 with tags, fused parts or gaps): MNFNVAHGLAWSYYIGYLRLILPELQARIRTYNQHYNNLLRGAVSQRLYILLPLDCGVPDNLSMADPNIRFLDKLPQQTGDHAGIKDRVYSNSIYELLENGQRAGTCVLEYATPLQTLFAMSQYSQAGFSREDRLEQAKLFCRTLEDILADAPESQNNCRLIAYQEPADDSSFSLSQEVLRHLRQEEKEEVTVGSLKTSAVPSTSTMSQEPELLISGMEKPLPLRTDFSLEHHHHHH
Description: Purified STING protein was used as bait to identify binding compounds, using a thermal shift assay (TSA). A library containing 250,000 compounds (Enamine, Monmouth Jct., NJ) was surveyed. Compounds that bound to STING were then examined for their ability to inhibit STING signaling, see Examples 1-4 vide infra. In the presence of cytosolic DNA species, STING becomes activated to drive the transcription of cytokines such as type I IFN. Compounds binding to STING via TSA were subsequently examined for their ability prevent cytosolic DNA species from activating the type I interferon (IFN) promoter, using a live cell assay. This assay comprised immortalized human fibroblasts (hTERT) that were stably transfected with the type I IFN promoter driving luciferase as well as the CMV promoter driving SEAP (hTERT-pIFNβ-Glu). The ability of the small molecules to prevent activation of the type I IFN promoter and the transcription of luciferase, but not SEAP in response to cytosolic DNA species can be assessed. The activation of STING, typically by CDNs, in turn activates the transcription factors NF-κB and IRF3, both of which are required to induce the transcriptional stimulation of the Type I IFN promoter, but not the CMV promoter (IRF3 and NF-kB transcription factor binding sites are not contained in the CMV promoter). […]

STING signaling [4] = experiment: Western blot of STING, pTBK1 and pIRF3 in hTERT cells after ISD transfection; format: cell-based, human; conditions: 6 hours after ISD transfection
Experimental: (§2) Example 8: Immunoblot analysis: Equal amounts of proteins were resolved on sodium dodecyl sulfate (SDS)-Polyacrylamide gels and then transferred to polyvinylidene fluoride (PVDF) membranes (Millipore). After blocking with 5% Blocking Reagent, membranes were incubated with various primary antibodies (and appropriate secondary antibodies). The image was resolved using an enhanced chemiluminescence system ECL (Thermo Scientific) and detected by autoradiography (Kodak). Antibodies: rabbit polyclonal antibody against STING was developed in our laboratory as described previously in Ishikawa et al, 2008; other antibodies were obtained from following sources: β-actin (Sigma Aldrich), p-IRF3 (Cell Signaling), IRF3 (Santa Cruz Biotechnology), p-p65 (Cell Signaling), p65 (Cell Signaling), p-TBK1 (Cell Signaling), TBK1 (Abcam), cGAS (Cell Signaling).

STING signaling [5] = experiment: Western blot of STING, TBK1 and IRF3 phosphorylation in MEF cells; format: cell-based, murine; conditions: cytosolic DNA
Experimental: as §2

STING signaling [6] = experiment: qPCR of Cxcl10 / Cxcl5 in MEF cells after ISD transfection; format: cell-based, murine
Experimental: MEFs were obtained from E13.5 embryos by a standard procedure. Bone Marrow Derived Macro-phages (BMDM) were isolated from hind-limb femurs of 8-10 weeks old WT and Trex1 KO (TKO) mice. The hematopoietic cells from the bone marrow were cultured in complete DMEM (Invitrogen) including 10 ng/ml of Mouse Recombinant Colony-Stimulating Factor (M-CSF, R&D Systems) for 10 to 14 days.
as §1

N#Cc1c(NC(=O)c2ccccc2Cl)n(Cc2ccccc2)c2nc3ccccc3nc12 [Compound Y1, N-{1-benzyl-3-cyano-1H-pyrrolo[2,3-ß]quinoxalin-2-yl}-2-chlorobenzamide]
IFNβ production (ELISA) (STING signaling [1]): reproducibly decreased the production of IFNβ; also recorded: dramatically decreased
production of STING-inducible cytokine Cxcl10 (qPCR) (STING signaling [2]; normal hTERT cells stimulated with ISD, 50 μM, 25 μM or 5 μM): robustly inhibited
IFNβ expression (qPCR of IFNβ1) (STING signaling [2]; normal hTERT cells, 6 hours after ISD transfection): dramatically decreased IFNβ expression and production
binding to STING (TSA) [3]: binds to and stabilizes STING; also recorded: can bind to STING
STING, TBK1 and IRF3 phosphorylation (Western blot) (STING signaling [4]): robustly prevented STING phosphorylation and subsequently TBK1 and IRF3 phosphorylation; also recorded: able to prevent the phosphorylation of STING, TBK1 and IRF3
phosphorylation of TBK1, IRF3 and STING (Western blot) (STING signaling [5]): prevented the phosphorylation of either TBK1 or IRF3
Cxcl10 production in response to ISD (qPCR) (STING signaling [6]): dramatically decreased
Cxcl5 production in response to ISD (qPCR) (STING signaling [6]; 50 μM): dramatically decreased
